Experimental data: ChEMBL document CHEMBL6134800, “Applications of innovative synthetic strategies in anticancer drug discovery: The driving force of new chemical reactions” (Bioorg Med Chem Lett, 2025)
Converted amounts (≈) assume the structure as drawn. One block for each compound: values may come before it.

Tests used:
A549 [1] = experiment: Antiproliferative activity against human A549 cells assessed as reduction in cell growth by MTT assay; type: functional, cell-based
HeLa [2] = experiment: Antiproliferative activity against human HeLa cells assessed as reduction in cell growth by MTT assay; type: functional, cell-based
A549 [3] = experiment: Growth inhibition of human A549 cells measured for 48 hrs by SRB assay; type: functional
MCF7 [4] = experiment: Growth inhibition of human MCF7 cells measured for 48 hrs by SRB assay; type: functional
[5] = Antioxidant activity assessed as hydroxyl radical scavenging activity; type: functional
HepG2 [6] = experiment: Growth inhibition of human HepG2 cells measured for 48 hrs by SRB assay; type: functional
PC-3 = experiment: Growth inhibition of human PC-3 cells measured for 48 hrs by SRB assay; type: functional
[7] = Antioxidant activity assessed as DPPH radical scavenging activity; type: functional
HeLa [8] = experiment: Cytotoxicity against human HeLa cells assessed as reduction in cell viability incubated for 48 hrs by SRB assay; type: functional, cell-based
MCF7 [9] = experiment: Cytotoxicity against human MCF7 cells assessed as reduction in cell viability incubated for 48 hrs by SRB assay; type: functional, cell-based; conditions: MCF7, 48 h
DU-145 = experiment: Cytotoxicity against human DU-145 cells assessed as reduction in cell viability incubated for 48 hrs by SRB assay; type: functional, cell-based; conditions: DU-145, 48 h
MDA-MB-231 [10] = experiment: Cytotoxicity against human MDA-MB-231 cells assessed as reduction in cell viability incubated for 48 hrs by SRB assay; type: functional, cell-based; conditions: MDA-MB-231, 48 h
HepG2 [11] = experiment: Cytotoxicity against human HepG2 cells assessed as reduction in cell viability incubated for 48 hrs by SRB assay; type: functional, cell-based; conditions: HepG2, 48 h
Bacillus subtilis = experiment: Antibacterial activity against Bacillus subtilis assessed as reduction in bacterial growth; type: functional, organism-based
MCF7 [12] = experiment: Cytotoxicity against human MCF7 cells assessed as reduction in cell viability by MTT assay; type: functional, cell-based
[13] = Cytotoxicity against human BEAS-2B cells assessed as reduction in cell viability by MTT assay; type: toxicity, cell-based
A549 [14] = experiment: Cytotoxicity against human A549 cells assessed as reduction in cell viability by MTT assay; type: functional, cell-based
HCT-116 [15] = experiment: Anticancer activity against human HCT-116 cells assessed as inhibition of cell viability at 20 uM relative to control; type: functional
HCT-116 [16] = experiment: Anticancer activity against human HCT-116 cells assessed as reduction in cell viability; type: functional, cell-based
HeLa [17] = experiment: Antiproliferative activity against human HeLa cells assessed as reduction in cell viability incubated for 24 hrs by MTT assay; type: functional, cell-based
A549 [18] = experiment: Antiproliferative activity against human A549 cells assessed as reduction in cell viability incubated for 24 hrs by MTT assay; type: functional, cell-based; conditions: A549, 24 h
HCT-116 [19] = experiment: Antiproliferative activity against human HCT-116 cells assessed as reduction in cell viability incubated for 24 hrs by MTT assay; type: functional, cell-based; conditions: HCT-116, 24 h
LoVo = experiment: Antiproliferative activity against human LoVo cells; type: functional, cell-based
HCT-116 [20] = experiment: Antiproliferative activity against human HCT-116 cells; type: functional, cell-based
[21] = target: Cyclin-dependent kinases regulatory subunit 1/S-phase kinase-associated protein 2 (Homo sapiens) (UniProt P61024+Q13309); experiment: Inhibition of SKP2/CKS1 (unknown origin) protein-protein interaction at 50 uM relative to control; type: protein assay
HL-60 = experiment: Cytotoxicity against human HL-60 cells assessed as reduction in cell growth by resazurin assay; type: functional, cell-based
NIH3T3 = experiment: Cytotoxicity against mouse NIH/3T3 cells assessed as reduction in cell growth by resazurin assay; type: functional, cell-based
Escherichia coli = experiment: Antimicrobial activity against Escherichia coli assessed as reduction in microbial growth; type: functional, organism-based
A549 [22] = experiment: Cytotoxicity against human A549 cells assessed as reduction in cell growth by resazurin assay; type: functional, cell-based
MDA-MB-231 [23] = experiment: Antiproliferative activity against human MDA-MB-231 cells; type: functional, cell-based
T47D = experiment: Antiproliferative activity against human T47D cells; type: functional, cell-based
MCF7 [24] = experiment: Antiproliferative activity against human MCF7 cells; type: functional, cell-based
BXPC-3 = experiment: Antiproliferative activity against human BXPC-3 cells assessed as reduction in cell growth incubated for 72 hrs by MTT assay; type: functional, cell-based; conditions: Homo sapiens, BXPC-3, 72 h

Sequence of Cyclin-dependent kinases regulatory subunit 1/S-phase kinase-associated protein 2 (Homo sapiens) (P61024 2-79 limits assumed): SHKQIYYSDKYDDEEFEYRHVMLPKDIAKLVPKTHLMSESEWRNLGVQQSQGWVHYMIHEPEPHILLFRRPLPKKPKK
Sequence of Cyclin-dependent kinases regulatory subunit 1/S-phase kinase-associated protein 2 (Homo sapiens) (Q13309 whole entry partner): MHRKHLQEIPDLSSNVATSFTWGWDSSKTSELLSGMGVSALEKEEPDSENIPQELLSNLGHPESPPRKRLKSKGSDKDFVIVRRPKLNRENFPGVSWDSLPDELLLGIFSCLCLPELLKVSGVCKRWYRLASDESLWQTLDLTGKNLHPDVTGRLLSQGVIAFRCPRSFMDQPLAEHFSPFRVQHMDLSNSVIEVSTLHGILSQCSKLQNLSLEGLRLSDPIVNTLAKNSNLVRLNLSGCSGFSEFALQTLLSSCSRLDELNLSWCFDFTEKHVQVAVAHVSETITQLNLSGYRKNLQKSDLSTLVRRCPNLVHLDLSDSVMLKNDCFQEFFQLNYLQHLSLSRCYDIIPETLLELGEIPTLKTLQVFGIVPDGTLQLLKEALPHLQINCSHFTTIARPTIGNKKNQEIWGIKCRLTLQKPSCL

IC50 (A549 [1]): 6.34 µM
IC50 (HeLa [2]): 2.69 µM
Structure (SMILES): Cc1c2n(c3ccc(F)cc13)C(O)(C(F)(F)F)C=C2c1ccccc1 (stereo unspecified)

IC50 (HCT-116 [16]): 9.4 µM
Structure (SMILES): CC(C)OC(=O)C1=CN(c2ccc3ccccc3c2)CC(O)(c2ccccc2)O1 (stereo unspecified)
inhibition at 20 µM (HCT-116 [15]): 56%

inhibition [21]: 45%
Structure (SMILES): COc1cc(OC)c(-c2cc(CC3c4ccccc4C(=O)N3c3ccc(C)cc3)nc3ncnn23)c(OC)c1 (stereo unspecified)

IC50 (HeLa [17]): 1.6 µM
IC50 (A549 [18]): 9.18 µM
IC50 (HCT-116 [19]): 1.63 µM
Structure (SMILES): O=C1/N=C2/c3ccccc3C(=O)C23C(=C(c2cccs2)N2CCc4cccc3c42)C(=O)c2ccccc21 (stereo unspecified)

IC50 (LoVo): 10.3 µM
IC50 (MDA-MB-231 [23]): 3.13 µM
IC50 (T47D): 5.37 µM
IC50 (HCT-116 [20]): 12.6 µM
IC50 (MCF7 [24]): 3.92 µM
Structure (SMILES): C=C1N(S(=O)(=O)c2ccc(C)cc2)c2ccccc2C1(C)N (racemic)

IC50 (LoVo): 3.65 µM
IC50 (MDA-MB-231 [23]): 2.15 µM
IC50 (T47D): 2.88 µM
IC50 (HCT-116 [20]): 4.3 µM
IC50 (MCF7 [24]): 2.21 µM
Structure (SMILES): C=C1N(S(=O)(=O)c2ccc(C)cc2)c2ccccc2[C@]1(C)N

IC50 (BXPC-3): 3.1 µM
Structure (SMILES): Cc1ccc(C2NC(=O)n3c(cc4ccccc43)C23CC3)cc1 (racemic)

IC50 (HCT-116 [16]): 7.6 µM
Structure (SMILES): CC(C)OC(=O)C1=CN(c2cccc(Br)c2)CC(O)(c2ccccc2)O1 (stereo unspecified)
inhibition at 20 µM (HCT-116 [15]): 59%

IC50 (BXPC-3): 1.7 µM
Structure (SMILES): Cc1ccc([C@@H]2NC(=O)n3c(cc4ccccc43)C23CC3)cc1

IC50 (BXPC-3): 6.1 µM
Structure (SMILES): Cc1ccc([C@H]2NC(=O)n3c(cc4ccccc43)C23CC3)cc1 (stereo in doubt; (R)-16a)

The remaining lines, values behind:

Structure (SMILES): CCc1cc(C(=O)c2ccccc2Cl)c(NC(c2ccc(F)cc2)c2c(O)ccc3ccccc23)s1 (stereo unspecified)
GI50 (A549 [3]): < 10 µg/mL
GI50 (MCF7 [4]): < 10 µg/mL
IC50 [5]: 31.3 µM
GI50 (HepG2 [6]): < 10 µg/mL
GI50 (PC-3): < 10 µg/mL
IC50 [7]: 29.8 µM

Structure (SMILES): OC1(C(F)(F)F)C=C(c2ccccc2)c2cc3ccccc3n21 (stereo unspecified)
IC50 (A549 [1]): 11.9 µM
IC50 (HeLa [2]): 2.17 µM

Structure (SMILES): CCOC(=O)c1sc(-c2ccc(OCC(C)C)c(C(Nc3ccc(OC)cc3)P(=O)(OCC)OCC)c2)nc1C (stereo unspecified)
IC50 (HeLa [8]): 10.7 µg/mL (≈ 18.1 µM)
IC50 (MCF7 [9]): 12.5 µg/mL (≈ 21.2 µM)
IC50 (DU-145): 3.02 µg/mL (≈ 5.11 µM)
IC50 (MDA-MB-231 [10]): 8.18 µg/mL (≈ 13.8 µM)
IC50 (HepG2 [11]): 22 µg/mL (≈ 37.3 µM)

Structure (SMILES): CN[C@@H]1[C@@H](O)[C@@H](O[C@@H]2[C@@H](O)[C@H](O[C@H]3O[C@H](CN)CC[C@H]3N)[C@@H](N)C[C@H]2N)OC[C@]1(C)O [GENTAMICIN C1A]
IC50 (Bacillus subtilis): 0.115 µM

Structure (SMILES): COC(=O)c1nc2nc(Oc3ccccc3)c(C#N)c(-c3ccc([N+](=O)[O-])cc3)c2c(N)c1C(=O)OC
IC50 (MCF7 [12]): 7.57 µg/mL (≈ 15.2 µM)
IC50 [13]: 51.3 µg/mL (≈ 103 µM)
IC50 (A549 [14]): 8.24 µg/mL (≈ 16.5 µM)

Structure (SMILES): COc1ccc(C2c3ccccc3-c3nc(C)cc(C(F)(F)F)c32)cc1OC (stereo unspecified)
IC50 (HeLa [17]): 5.52 µM
IC50 (A549 [18]): 19.5 µM
IC50 (HCT-116 [19]): 15.4 µM

Structure (SMILES): O=C(CCCCCCC(=O)Nc1ccccc1)NO [VORINOSTAT]
IC50 (LoVo): 0.74 µM
IC50 (HCT-116 [20]): 10.1 µM

Structure (SMILES): Cc1cc(C)cc(P(=O)(c2cc(C)cc(C)c2)C2C(C#N)=C(N)Oc3c(Br)cccc32)c1 (stereo unspecified)
IC50 (HL-60): 9.8 µM
IC50 (Bacillus subtilis): > 10 µM
IC50 (NIH3T3): > 30 µM
IC50 (Escherichia coli): > 10 µM
IC50 (A549 [22]): > 30 µM

Structure (SMILES): CCOC(=O)c1sc(-c2ccc(OCC(C)C)c(C(Nc3ccc(C(F)(F)F)cc3I)P(=O)(OCC)OCC)c2)nc1C (stereo unspecified)
IC50 (HeLa [8]): 12.3 µg/mL (≈ 16.3 µM)
IC50 (MCF7 [9]): 14.1 µg/mL (≈ 18.7 µM)
IC50 (DU-145): 3.34 µg/mL (≈ 4.43 µM)
IC50 (MDA-MB-231 [10]): 8.54 µg/mL (≈ 11.3 µM)
IC50 (HepG2 [11]): 26.1 µg/mL (≈ 34.6 µM)

Structure (SMILES): COc1ccc(N2C(=O)c3ccccc3C2Cc2cc(-c3c(OC)cc(OC)cc3OC)n3ncnc3n2)cc1 (stereo unspecified)
inhibition [21]: 54%

Structure (SMILES): N#CC1=C(N)Oc2ccccc2C1P(=O)(OCc1ccccc1)OCc1ccccc1 (stereo unspecified)
IC50 (HL-60): 6.25 µM
IC50 (Bacillus subtilis): > 10 µM
IC50 (NIH3T3): 8.73 µM
IC50 (Escherichia coli): > 10 µM
IC50 (A549 [22]): 26.5 µM

Structure (SMILES): C[C@H]1c2cccc(O)c2C(=O)C2=C(O)[C@]3(O)C(=O)C(C(N)=O)=C(O)[C@@H](N(C)C)[C@@H]3[C@@H](O)[C@@H]21 [DOXYCYCLINE ANHYDROUS]
IC50 (Bacillus subtilis): 0.126 µM
IC50 (Escherichia coli): 0.1 µM

Structure (SMILES): O=NN(CCCl)C(=O)NCCCl [CARMUSTINE]
IC50 (MCF7 [12]): 9.34 µg/mL (≈ 43.6 µM)
IC50 [13]: 6.52 µg/mL (≈ 30.5 µM)
IC50 (A549 [14]): 6.35 µg/mL (≈ 29.7 µM)

Structure (SMILES): CCOC(=O)c1sc(-c2ccc(OCC(C)C)c(C(Nc3ccc([N+](=O)[O-])cc3)P(=O)(OCC)OCC)c2)nc1C (stereo unspecified)
IC50 (HeLa [8]): 9.6 µg/mL (≈ 15.9 µM)
IC50 (MCF7 [9]): 12.3 µg/mL (≈ 20.3 µM)
IC50 (DU-145): 2.13 µg/mL (≈ 3.52 µM)
IC50 (MDA-MB-231 [10]): 6.3 µg/mL (≈ 10.4 µM)
IC50 (HepG2 [11]): 20.9 µg/mL (≈ 34.5 µM)
